Measured values: patent US20120225097A1, “PIPERAZINECARBOXAMIDE DERIVATIVE USEFUL AS A MODULATOR OF FATTY ACID AMIDE HYDROLASE (FAAH)” (priority 2009, published 2012)
Where “and” joins values, the source holds several entries; their conditions need not be identical. Equal entries are not always repeated. Structures can show the parent of a compound that is named as a salt.

Key:
[1] = system: Langendorff isolated heart; assay: Assay Method 3: Langendorff isolated heart protocol; design: species or system Sprague-Dawley rats; details: isolated rat heart; for effect on left ventricular developed pressure (LVDevP): 30 μM; for effect on left ventricular systolic pressure (LVSP): maximum concentration tested 30 μM; for hearts showing greater than 30% slowing of heart rate: perfused at 30 μM; for hearts showing greater than 30% heart rate slowing: bath concentration 26 μM
Description: Langendorff Isolated Heart Protocol
Male Sprague-Dawley rats (300-500 g) were anesthetized by an intraperitoneal injection of sodium pentobarbital (50 mg/kg), and then euthanized via cardiectomy. Hearts were rapidly removed, mounted on a
A ventricular drain and fluid-filled latex balloon was secured in the left ventricle with a purse string suture at the atrial appendage. Hearts were not paced. […] The hearts were maintained at approximately 37° C. while suspended in a glass chamber and bathed with Krebs-Henseleit buffer. The latex balloon in the left ventricle (LV) was expanded with water to achieve a LV end-diastolic pressure (LVEDP) of approximately 10-15 mmHg. The balloon was connected via tubing to a pressure transducer to measure LVEDP, LV […] pressure (LVDP) and LV systolic pressure (LVSP). Coronary perfusion pressure (CPP) was measured with a pressure transducer connected to a side-arm port of the aortic cannula.
Individual hearts were equilibrated for approximately 10-15 minutes. Following this equilibration period, baseline measurements were collected for approximately 15 minutes. After this period, a first heart was exposed to test compound for a total 75 min (comprising five increasing concentrations of test compound for approximately 15 minutes at each concentration) with measurements collected continuously. Test compound was dissolved in DMSO and then added directly to the experiment perfusion medium.
A one mL sample of perfusion medium was taken from the heart exudate at the end of each 15 minute monitoring period. The samples were frozen on dry ice, stored in a freezer set to maintain −80° C. until analysis. At the conclusion of the experiment, the hearts were frozen with liquid nitrogen and stored in a freezer set to maintain a temperature of −80° C. until analyzed.

[2] = target: T1, rat FAAH (Rattus norvegicus, UniProt P97612); assay: Assay Method 2: FAAH assay, anandamide hydrolysis in cell homogenate; type: biochemical; details: for IC50: average value (standard error of the mean in parenthesis), 3H-AEA 80 nM, 1 h rt
T1 construct: expressed in transfected cells
T1 sequence (P97612 1-579): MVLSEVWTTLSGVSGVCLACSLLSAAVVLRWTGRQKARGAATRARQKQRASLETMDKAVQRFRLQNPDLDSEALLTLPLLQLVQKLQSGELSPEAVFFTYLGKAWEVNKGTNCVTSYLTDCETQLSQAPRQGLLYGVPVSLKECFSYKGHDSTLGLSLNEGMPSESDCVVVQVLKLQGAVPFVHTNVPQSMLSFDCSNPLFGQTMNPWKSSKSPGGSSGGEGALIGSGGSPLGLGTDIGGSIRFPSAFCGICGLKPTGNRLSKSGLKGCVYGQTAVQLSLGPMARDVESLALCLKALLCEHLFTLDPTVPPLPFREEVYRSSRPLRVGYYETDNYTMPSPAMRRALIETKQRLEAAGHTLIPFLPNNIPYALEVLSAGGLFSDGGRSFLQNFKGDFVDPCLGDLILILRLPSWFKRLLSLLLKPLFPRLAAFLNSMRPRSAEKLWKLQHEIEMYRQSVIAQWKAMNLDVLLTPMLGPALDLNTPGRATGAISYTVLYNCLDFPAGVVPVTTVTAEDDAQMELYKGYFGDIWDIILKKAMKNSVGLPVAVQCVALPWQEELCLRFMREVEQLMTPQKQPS
Description: A. Transfection of Cells with Rat FAAH
A 10-cm tissue culture dish with a confluent monolayer of SK-N-MC cells was split 2 d prior to transfection. Using sterile technique, the media was removed and the cells were detached from the dish by the addition of trypsin. One fifth of the cells were then placed onto a new 10-cm dish. Cells were grown in a 37° C. incubator with 5% CO2 in Minimal Essential Media Eagle containing 10% Fetal Bovine Serum. After 2 d, cells were approximately 80% confluent. These cells were removed from the dish with trypsin and pelleted in a clinical centrifuge. The pellet was re-suspended in 400 μL complete media and transferred to an electroporation cuvette with a 0.4 cm gap between the electrodes. Supercoiled rat FAAH cDNA (1 μg), corresponding to NCBI accession NM_024132, was added to the cells and mixed. The voltage for the electroporation was set at 0.25 kV, and the capacitance was set at 960 μF. After electroporation, the cells were diluted into complete media (10 mL) and plated onto four 10-cm dishes. Because of the variability in the efficiency of electroporation, four different concentrations of cells were plated. The ratios used were 1:20, 1:10, and 1:5, with the remainder of the cells being added to the fourth dish. The cells were allowed to recover for 24 h before adding the selection media (complete media with 600 μg/mL G418). After 10 d, dishes were analyzed for surviving colonies of cells. Dishes with well-isolated colonies were used. Cells from individual colonies were isolated and tested.
T84 frozen cell pellets or transfected SK-N-MC cells (contents of 1×15 cm culture dishes) were homogenized in 50 mL of FAAH assay buffer (125 mM Tris, 1 mM EDTA, 0.2% Glycerol, 0.02% Triton X-100, 0.4 mM Hepes, pH 9). The assay mixture consisted of 50 μL of the cell homogenate, 10 μL of the test compound, and 40 μL of anandamide [1-^3H-ethanolamine] (^3H-AEA, Perkin-Elmer, 10.3 Ci/mmol), which was added last, for a final tracer concentration of 80 nM. The reaction mixture was incubated at rt for 1 h. During the incubation, 96-well Multiscreen filter plates (catalog #MAFCNOB50; Millipore, Bedford, Mass., USA) were loaded with 25 μL of activated charcoal (Multiscreen column loader, catalog #MACL09625, Millipore) and washed once with 100 μL of MeOH. Also during the incubation, 96-well DYNEX MicroLite plates (catalog #NL510410) were loaded with 100 μL of MicroScint40 (catalog #6013641, Packard Bioscience, Meriden, Conn., USA). After the 1 h incubation, 60 μL of the reaction mixture were transferred to the charcoal plates, which were then assembled on top of the DYNEX plates using Centrifuge Alignment Frames (catalog #MACF09604, Millipore). […]

Row | Structure (SMILES) | effect on left ventricular developed pressure (LVDevP) [1] | effect on left ventricular systolic pressure (LVSP) [1] | hearts showing greater than 30% slowing of heart rate [1] | IC50 [2] [nM] | hearts showing greater than 30% heart rate slowing [1] | hearts showing greater than 30% heart rate slowing ([1]; listed as 4-[3-(4-bromophenoxy)benzyl]-N-pyridin-3-ylpiperazine-1-carboxamide bis-hydrochl) | effect on left ventricular systolic pressure (LVSP) ([1]; listed as N-pyridin-3-yl-4-{3-[4-(trifluoromethyl)phenoxy]benzyl}piperazine-1-carboxamide , bis-hydrochloride dihydrate) | effect on left ventricular systolic pressure (LVSP) ([1]; listed as N-pyridin-3-yl-4-{3-[4-(trifluoromethyl)phenoxy]benzyl}piperazine-1-carboxamide, bis-hydrochloride dihydrate) | times more potent in in vitro assays using rat FAAH enzyme (vs 4-chlorophenyl comparator) ([2]; relative to 4-({3-[(4-chlorophenyl)oxy]phenyl}methyl)-N-pyridin-3-ylpiperazine-1-carboxamide)
1 | O=C(Nc1cccnc1)N1CCN(Cc2cccc(Oc3ccc(Cl)cc3)c2)CC1 [4-({3-[(4-Chlorophenyl)oxy]phenyl}methyl)-N-pyridin-3-ylpiperazine-1-carboxamide] | near-doubling | marked increase | all hearts (n=4) and 4/4 | 65 | – | – | – | – | –
2 | O=C(Nc1cccnc1)N1CCN(Cc2cccc(Oc3ccc(Br)cc3)c2)CC1 [4-[3-(4-Bromophenoxy)benzyl]-N-pyridin-3-ylpiperazine-1-carboxamide] | – | – | – | 22 | 3/4 | three of four | – | – | –
3 | O=C(Nc1cccnc1)N1CCN(Cc2cccc(Oc3ccc(C(F)(F)F)cc3)c2)CC1 [Example 1, N-Pyridin-3-yl-4-{3-[4-(trifluoromethyl)phenoxy]benzyl}piperazine-1-carboxamide, bis-hydrochloride dihydrate] | decrease | – | two of five | 18 | – | – | did not induce an abrupt increase | did not | about 3.5 times
